Tests used:
[1] = tested on: peanut-sensitized mice; assay: Mathematical model grading severity of the anaphylactic response (AU39° C., AU35° C., events under 35° C.); assay type: in vivo, C57BL/6 mice
Protocol: In an effort to more comprehensively grade the anaphylactic response, three measures of severitywere utilized: global, moderate and life-threatening severity. To facilitate the assessment of severity, a mathematical model that describes the overall behavior of the anaphylactic response for each experimental group was developed. Using mean experimental data for untreated mice, an equation was derived that represents the pattern in core temperature up to 120 minutes following challenge. The same equation was then fit to the other experimental group (mice treated with PAF-R antagonist) to derive a numerical coefficient that accurately depicts the respective response. (FIG. 3 E). These equations were subsequently used to generate modeled data. Actual and modeled data were validated through linear regression, yielding R^2 values of greater than 0.99 for both untreated and treated groups (FIG. 3 F). Thus, the response for each experimental group can be expressed with a mathematical representation that can be used to assess the overall degree of the anaphylactic response. Global severity was defined as the area of the response under 39° C. (AU39° C.), while life-threatening severity was depicted as the area of the response under 35° C. (AU35° C.; FIG. 3 F). Moderate severity was deemed as the difference between global and life-threatening severity (AU39° C.-AU35° C.; FIG. 3 F). Given that these areas (i.e. AU39° C. and AU35° C.) were calculated using mean temperatures at each time point, they describe the overall trend of the response. […] In other words, the AU35° C. is not representative of those mice that experienced life-threatening anaphylaxis exclusively but rather encompasses the response of the entire population. Therefore, the concept of life-threatening severity was modified to consider only the number of mice whose temperature fell below 35° C. at any time point (expressed as ‘events under 35° C.’). In addition, the duration of life-threatening conditions was determined by calculating the time at which each response was below 35° C. (FIG. 3 F).
The potential adjuvant effect of antihistamines in the treatment of PIA was assessed. Peanut-sensitized mice were treated with a PAF-R antagonist along with H1 and H2 receptor antagonists and monitored them for 120 min following challenge. FIG. 4 illustrates that concomitant treatment with PAF-R antagonist and anti-histamines prevents life-threatening and prolonged peanut-induced anaphylactic reactions. […] One week after the last sensitization, separate groups of mice were treated as follows: (A) appropriate drug vehicle (B) PAF-R antagonist [50 mg/Kg], ABT-491] orally 1 h prior to CPE challenge. (C) histamine receptor antagonists mepyramine [3 mg/kg] and cimetadine [10 mg/Kg] (for H1 receptor and H2 receptor, respectively) i.v. 30 min prior to CPE challenge (D) The last group of mice was administered the treatments described in B and C concurrently. Pooled data from two independent experiments are shown (n=6/experiment). *, P<0.05 relative to time 0. ns, not significant. […] (E) The accuracy of the model was quantified using linear regression. Using the equation from the model, global severity was defined as the area between the response and 39 (area under 39° C. (AU39° C.)) while life-threatening severity was defined as the area of the response under 35° C. (AU35° C.). Since these areas were calculated using mean temperatures at each time point, they describe the overall trend of the response. […]

[2] = tested on: albumin in the PL fluid; assay: Vascular leakage: albumin content in PL fluid after peanut challenge; assay type: in vivo, C57BL/6 mice; details: PAF-R antagonist; following peanut challenge
Text: During the course of a systemic anaphylactic reaction vasodilatation and hypotension are often associated with excessive vascular permeability and fluid extravasations.

[3] = tested on: cysteinyl leukotrienes (CysLTC); assay: Plasma cysteinyl leukotrienes after peanut challenge (enzyme immunoassay); assay type: in vivo, C57BL/6 mice
Protocol: Blood from control and sensitized mice was collected in K2-EDTA containing tubes at the indicated time points following i.p challenge with CPE and plasma was analyzed for (E) histamine and (F) CysLTC levels. Histamine and leukotriene levels were determined in plasma at different time points following challenge using enzyme immunoassay kits (Beckman Coulter Canada, Inc, Mississauga, and Cedarlane Laboratories Ltd, Hornby, Canada, respectively) according to the manufacture's specifications. Plasma was obtained using K2-EDTA containing tubes (BD Biosciences, Mississauga, ON, Canada). Graphs show mean values±SEM from three to five independent experiments; n=8-12 mice per group. * P<0.05 relative to control. The kinetics of mediator production is distinct. […] These findings indicate that oral sensitization with peanut results in a significant increase in the number of peritoneal mast cells and FcεRI surface expression likely contributing to the massive release of vasoactive mediators following challenge with peanut.
(for H1 receptor and H2 receptor, respectively) i.v. 30 minutes prior to CPE challenge. […] Histamine (C) and (G) and leukotriene (D) and (H) levels from each of the experimental groups above were analyzed in plasma 40 min following CPE challenge. […]

[4] = tested on: peanut-sensitized mice

SMILES | decrease in global severity (AU39° C.) ([1]; PAF-R antagonist 50 mg/Kg orally vs. untreated, up to 120 min following challenge, FIG. 3 F) | less time under life-threatening conditions (below 35° C.) compared to untreated mice ([1]; PAF-R antagonist 50 mg/Kg orally, FIG. 3 F) | number of 'events under 35° C.' ([1]; PAF-R antagonist 50 mg/Kg orally, untreated 133, FIG. 3 F) | number of 'events under 35° C.' ([1]; treatments as, 120 min, untreated 75, FIG. 4 E) | effect on moderate severity (AU39° C.-AU35° C.) ([1]; treatments as, up to 120 min, FIG. 4 E) | decrease in the content of albumin in the PL fluid of treated mice compared to untreated mice (vascular leakage) [2] | levels of Cysts in plasma following challenge with peanut ([3]; PAF-R antagonist treated, untreated 570.2±237.3, mean±SEM) | development of seizures (convulsions) ([4]; ABT-491 50 mg/Kg orally 1 h prior to challenge, 15% of untreated mice developed convulsions) | recovery from the anaphylactic reaction ([4]; ABT-491 50 mg/Kg orally 1 h prior to challenge, monitored 120 min, FIGS. 3 C and D) | treated mice that developed either no or mild anaphylactic reactions ([4]; ABT-491 50 mg/Kg orally 1 h prior to challenge, no: score 0, 37.5-40° C., mild: score ≦2, 34.5-37.5° C.) | mice that reached recovery temperature (37° C.) within 120 min following challenge ([4]; ABT-491 50 mg/Kg orally 1 h prior to challenge, untreated 43%, FIG. 3 C) | mice that dropped their core temperature by more than 4° C. ([4]; ABT-491 50 mg/Kg orally 1 h prior to challenge, untreated 87%) | mice that died within 48 h following challenge ([4]; ABT-491 50 mg/Kg orally 1 h prior to challenge, untreated approximately 20%) | mice that experienced severe hypothermia 120 min following challenge ([4]; ABT-491 50 mg/Kg orally 1 h prior to challenge, untreated approximately 30%) | leukotrienes in plasma from treated mice ([3]; Zileuton 50 mg/Kg oral, 12 h and 1 h prior to challenge, plasma 40 min following CPE challenge, FIG. 2 D) | impact on the extent and/or kinetics of peanut-induced anaphylactic reactions ([4]; Zileuton 50 mg/Kg oral gavage twice, 12 h and 1 h prior to i.p. CPE challenge, 40 min, FIGS. 2 A and B)
C#Cc1cccc2c1c(C(=O)c1ccc(Cn3c(C)nc4cnccc43)c(F)c1)cn2C(=O)N(C)C [ABT-491] | approximately 50% | approximately 75% | 41 | 16 | partial effect | 57% | 187.3 ± 96.9 pg/mL | no seizures were observed | significantly accelerated | ~50% | 83% | 48% | none | 9% |  | 
CC(c1cc2ccccc2s1)N(O)C(N)=O (stereo not shown) [Zileuton] |  |  |  |  |  |  |  |  |  |  |  |  |  |  | nearly undetected | did not have an impact
